Columns and labels:
HaCaT keratinocytes = test: Proliferation of HaCaT keratinocytes (Cell Titer Viability Assay, luminescence); assay type: cell-based; conditions: 48 hours; for inhibition of proliferation of keratinocytes: comparable to negative control
Protocol: As further control cells were used, which were only incubated in KBM (KBM).
For this purpose 5×10^3 HaCaT keratinocytes were seeded into 60 wells of a 96 well-plate in 200 μl KBM/10% FCS each and incubated for 24 hours at 37° C. […] At the end of the second incubation period the medium was removed and the proliferation of cells was determined with the Cell Titer Viability Assay of Promega (#G7571/G7572) according to the manufacturer's instructions. A lowered luminescence with respect to the positive control (in RLU relative luminescence units) correlated with a lowered proliferation. Values obtained from the wells without cells were subtracted from the mean of the 6 wells with cells as background value. At least 4 independent experiments were carried out.

[1] = administration of up to 100 mg, therapy of lateral sclerosis; cited from earlier work

Nc1nc2ccc(OC(F)(F)F)cc2s1 [Riluzole, 2-amino-6-(trifluoromethoxy)-benzothiazole]
inhibition of proliferation of keratinocytes (HaCaT keratinocytes; 100 μmol/l Riluzole): complete inhibition of proliferation | inhibition of proliferation of keratinocytes (HaCaT keratinocytes; 250 μmol/l Riluzole): complete inhibition of proliferation | concentration at which an inhibition of the proliferation was already observed (HaCaT keratinocytes; HaCaT keratinocytes, versus control KBM+10% FCS): 1 µmol/L | adverse effect anestenia [1]: 18 % of the treated patients | adverse effect nausea [1]: 16 % of all treated patients
